Read-outs that look alike come from different tables or passages of the source.
Assays:
[1] = target: T1, IKZF2 (Homo sapiens, UniProt Q96SW2+Q9UKS7); assay: IKZF2 degradation assay, HiBiT method (Nano-Glo HiBiT Lytic Assay); assay type: cell-based; settings: JURKAT.21 (IKZF2-HiBiT) cells
T1 construct: endogenously expressing IKZF2 with HiBiT fusion tag via CRISPR; host or cells: JURKAT.21 (IKZF2-HiBiT), CRISPR knock-in
Description: Example 61 IKZF2 Degradation Assay
RPMI 1640 Medium without phenol red and fetal bovine serum (FBS) were purchased from Gibco (Grand Island, NY, USA). Nano-Glo® HiBiT Lytic Assay System was purchased from Promega (Madison, WI, USA). JURKAT.21 (IKZF2-HiBiT) cell line, endogenously expressing IKZF2 with HiBiT fusion tag via CRISPR, was purchasing from Synthego (Menlo Park, CA, USA). Cell culture flasks and 384-well microplates were acquired from VWR (Radnor, PA, USA).
IKZF2 Degradation Analysis
(§1) IKZF2 degradation was determined based on quantification of luminescent signal using Nano-Glo® HiBiT Lytic Assay kit. Test compounds were added to the 384-well plate from a top concentration of 10 µM with 11 points, half log titration in duplicates. JURKAT.216 cells were added into 384-well plates at a cell density of 5000 cells per well. The plates were kept at 37° C. with 5% CO2 for 6 or 24 hours. The cells treated in the absence of the test compound were the negative control and the cells without Nano-Glo® HiBiT Lytic reagent were the positive control. After 6-hour or 24-hour incubation, Nano-Glo® HiBiT Lytic Assay reagents were added to the cells. Luminescence was acquired on EnVision™ Multilabel Reader (PerkinElmer, Santa Clara, CA, USA).

[2] = target: T2, GSPT1 (Homo sapiens, UniProt P15170+Q96SW2); assay: GSPT1 degradation assay, HiBiT method (Nano-Glo HiBiT Lytic Assay); assay type: cell-based; settings: 293T.114 (HiBiT-GSPT1) cells, 6 hours
T2 construct: endogenously expressing GSPT1 with HiBiT fusion tag via CRISPR; endogenous in cells; host or cells: 293T.114 (HiBiT-GSPT1), CRISPR knock-in, generated in house
Procedure: Example 62 GSPT1 Degradation Assay
DMEM no-phenol red medium and fetal bovine serum (FBS) were purchased from Gibco (Grand Island, NY, USA). Nano-Glo® HiBiT Lytic Assay System was purchased from Promega (Madison, WI, USA). 293T.114 (HiBiT-GSPT1) cell line was generated in house, endogenously expressing GSPT1 with HiBiT fusion tag via CRISPR. Cell culture flasks and 384-well microplates were acquired from VWR (Radnor, PA, USA).
GSPT1 Degradation Analysis
as §1, with “GSPT1” for “IKZF2”, “293T.114” for “JURKAT.216”, “6000” for “5000”, “6” for “6 or 24”, “6-hour” for “6-hour or 24-hour”, “designated wells.” for “cells.”

[3] = 6 hours, read-out: HiBiT-Degradation JURKAT.21 IKZF2 6 hours DC50
[4] = 6 hours, read-out: HiBiT-Degradation JURKAT.21 IKZF2 6 hours Emax
[5] = 24 hours, read-out: HiBiT-Degradation JURKAT.21 IKZF2 24 hours DC50
[6] = 24 hours, read-out: HiBiT-Degradation JURKAT.21 IKZF2 24 hours Emax

T1 sequence (Q9UKS7 whole entry, the tested form may be a part): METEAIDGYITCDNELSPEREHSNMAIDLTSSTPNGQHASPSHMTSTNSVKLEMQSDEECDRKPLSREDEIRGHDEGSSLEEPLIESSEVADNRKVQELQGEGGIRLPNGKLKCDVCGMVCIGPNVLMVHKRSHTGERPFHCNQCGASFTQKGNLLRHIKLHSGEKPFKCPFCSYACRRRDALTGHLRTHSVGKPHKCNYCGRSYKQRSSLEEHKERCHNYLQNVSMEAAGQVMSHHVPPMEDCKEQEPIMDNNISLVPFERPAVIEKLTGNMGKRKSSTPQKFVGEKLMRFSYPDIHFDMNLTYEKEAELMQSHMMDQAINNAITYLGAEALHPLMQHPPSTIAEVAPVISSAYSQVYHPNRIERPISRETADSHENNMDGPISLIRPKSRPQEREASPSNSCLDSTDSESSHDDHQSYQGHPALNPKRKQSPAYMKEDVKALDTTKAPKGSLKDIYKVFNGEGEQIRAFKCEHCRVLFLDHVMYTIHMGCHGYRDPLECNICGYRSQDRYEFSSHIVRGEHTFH
T1 sequence (Q96SW2 whole entry, the tested form may be a part): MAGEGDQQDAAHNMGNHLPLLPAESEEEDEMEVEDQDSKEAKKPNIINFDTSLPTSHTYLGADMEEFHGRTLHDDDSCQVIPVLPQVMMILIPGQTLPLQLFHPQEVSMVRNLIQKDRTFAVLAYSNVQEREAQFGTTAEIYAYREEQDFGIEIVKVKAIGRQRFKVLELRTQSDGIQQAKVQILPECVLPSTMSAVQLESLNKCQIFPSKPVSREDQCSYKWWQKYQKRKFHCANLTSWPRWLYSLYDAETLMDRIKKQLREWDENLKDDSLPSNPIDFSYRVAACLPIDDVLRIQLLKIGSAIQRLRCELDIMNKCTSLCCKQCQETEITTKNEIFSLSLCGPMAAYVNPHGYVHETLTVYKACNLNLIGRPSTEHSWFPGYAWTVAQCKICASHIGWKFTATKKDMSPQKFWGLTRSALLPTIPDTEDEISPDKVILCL
T1 sequence (Q16531 whole entry partner, the tested form may be a part): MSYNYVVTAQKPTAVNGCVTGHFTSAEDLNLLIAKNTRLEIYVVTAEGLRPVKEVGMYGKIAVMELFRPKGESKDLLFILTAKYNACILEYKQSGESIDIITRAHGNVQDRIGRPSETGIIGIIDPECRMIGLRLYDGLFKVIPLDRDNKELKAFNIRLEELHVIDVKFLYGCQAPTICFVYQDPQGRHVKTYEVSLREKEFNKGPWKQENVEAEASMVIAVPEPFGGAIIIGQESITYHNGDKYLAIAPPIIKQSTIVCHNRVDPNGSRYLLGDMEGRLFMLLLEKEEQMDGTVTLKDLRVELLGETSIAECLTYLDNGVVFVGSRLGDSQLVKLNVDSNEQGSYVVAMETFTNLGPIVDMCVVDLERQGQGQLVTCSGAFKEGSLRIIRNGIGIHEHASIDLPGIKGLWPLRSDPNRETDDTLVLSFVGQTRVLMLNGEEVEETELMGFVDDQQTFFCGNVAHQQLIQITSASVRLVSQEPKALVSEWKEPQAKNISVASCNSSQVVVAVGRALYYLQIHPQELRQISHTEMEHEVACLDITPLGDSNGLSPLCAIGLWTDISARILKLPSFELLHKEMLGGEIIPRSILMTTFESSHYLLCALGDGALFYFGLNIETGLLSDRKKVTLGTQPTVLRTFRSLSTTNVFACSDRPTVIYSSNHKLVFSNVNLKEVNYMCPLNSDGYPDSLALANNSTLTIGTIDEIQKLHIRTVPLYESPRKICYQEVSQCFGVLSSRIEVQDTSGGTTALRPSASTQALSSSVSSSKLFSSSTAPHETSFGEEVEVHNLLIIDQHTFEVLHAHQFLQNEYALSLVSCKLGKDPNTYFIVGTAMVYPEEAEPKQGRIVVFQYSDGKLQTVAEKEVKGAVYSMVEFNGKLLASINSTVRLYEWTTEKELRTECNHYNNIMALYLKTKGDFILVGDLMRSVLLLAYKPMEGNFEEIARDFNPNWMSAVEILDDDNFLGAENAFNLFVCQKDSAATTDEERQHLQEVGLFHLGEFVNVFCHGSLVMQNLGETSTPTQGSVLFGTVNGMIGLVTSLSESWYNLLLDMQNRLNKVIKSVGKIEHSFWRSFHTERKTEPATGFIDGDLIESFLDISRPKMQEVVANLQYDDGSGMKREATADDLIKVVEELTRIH
T2 sequence (P15170 whole entry, the tested form may be a part): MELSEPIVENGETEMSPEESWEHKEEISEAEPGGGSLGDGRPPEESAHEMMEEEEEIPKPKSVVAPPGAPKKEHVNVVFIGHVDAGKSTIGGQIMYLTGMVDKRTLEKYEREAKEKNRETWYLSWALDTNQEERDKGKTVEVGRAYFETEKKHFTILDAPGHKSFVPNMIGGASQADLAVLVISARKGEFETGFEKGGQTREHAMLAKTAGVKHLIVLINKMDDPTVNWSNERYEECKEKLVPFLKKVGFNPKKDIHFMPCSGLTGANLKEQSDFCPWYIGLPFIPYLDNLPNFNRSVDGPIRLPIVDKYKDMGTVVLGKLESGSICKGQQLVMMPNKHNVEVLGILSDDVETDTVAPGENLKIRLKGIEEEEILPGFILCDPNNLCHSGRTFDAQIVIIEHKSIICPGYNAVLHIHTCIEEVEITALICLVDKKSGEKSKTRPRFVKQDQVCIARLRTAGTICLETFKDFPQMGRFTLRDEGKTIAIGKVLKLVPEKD
T2 sequence (Q96SW2 whole entry, the tested form may be a part): as the sequence (Q96SW2 whole entry, the tested form may be a part) above
T2 sequence (Q16531 whole entry partner, the tested form may be a part): as the sequence (Q16531 whole entry partner, the tested form may be a part) above

With `CC(NC(=O)c1ccc2c3c(cccc13)N(C1CCC(=O)NC1=O)C2=O)c1ccccc1` (centres unmarked) [Compound 107, 1-(2,6-dioxo-3-piperidyl)-2-oxo-N-(1-phenylethyl)benzo[cd]indole-5-carboxamide] the DC50 [1, 3] was over 10 µM, the Emax [1, 4] was 60 to 95% and the DC50 [2] was over 10 µM. For the same compound, the Emax [2] was 60 to 95%.
Compound `CN1CC(F)(c2ccc3c4c(cccc24)N(C2CCC(=O)NC2=O)C3=O)C1` (centres unmarked) [Compound 101] has a DC50 [1, 3] of over 10 µM, an Emax [1, 4] of 60 to 95% and a DC50 [2] of over 10 µM. It also gave an Emax [2] of over 95%.
For `O=C1CCC(N2C(=O)c3ccc(C4CCN(Cc5cccc(S(=O)(=O)N6CCOCC6)c5)CC4)c4nccc2c34)C(=O)N1` (centres unmarked) [Compound 128, 3-[21-[1-[(3-morpholinosulfonylphenyl)methyl]-4-piperidyl]-29-oxo-31,35-diazatricyclododeca-3(21),4(22),5(23),6(31),24-pentaen-35-yl]piperidine-2,6-dione], the DC50 [1, 3] was over 10 µM, the Emax [1, 4] was 60 to 95% and the DC50 [1, 5] was over 10 µM. The Emax [1, 6] was 60 to 95%, the DC50 [2] was over 10 µM and the Emax [2] was 60 to 95%.
Compound `O=C1CCC(N2C(=O)c3ccc(N4CCN(Cc5ccccc5)CC4)c4nccc2c34)C(=O)N1` (centres unmarked) [Compound 120, 3-[18-(4-benzylpiperazin-1-yl)-24-oxo-26,30-diazatricyclododeca-5,7(19),8(26),17(20),18(21)-pentaen-30-yl]piperidine-2,6-dione] has a DC50 [1, 3] of over 10 µM, an Emax [1, 4] of 60 to 95% and a DC50 [2] of over 10 µM. The Emax [2] was 60 to 95%.
`CN1CC(c2ccc3c4c(cccc24)N(C2CCC(=O)NC2=O)C3=O)C1` (centres unmarked) [Compound 102, 3-[5-(1-methylazetidin-3-yl)-2-oxo-benzo[cd]indol-1-yl]piperidine-2,6-dione] was tested, and the DC50 [1, 3] was over 10 µM, the Emax [1, 4] was 60 to 95% and the DC50 [1, 5] was over 10 µM. The Emax [1, 6] was 60 to 95%, the DC50 [2] was over 10 µM and the Emax [2] was 60 to 95%.
For `CN1CCC(c2ccc3c4c(cccc24)N(C2CCC(=O)NC2=O)C3=O)C1` (centres unmarked) [Compound 98, 3-[5-(1-methylpyrrolidin-3-yl)-2-oxo-benzo[cd]indol-1-yl]piperidine-2,6-dione], the DC50 [1, 3] was over 10 µM, the Emax [1, 4] was 60 to 95% and the DC50 [2] was over 10 µM. It also gave an Emax [2] of over 95%.
`O=C1CCC(N2C(=O)c3ccc(C4(F)CN(Cc5ccccc5)C4)c4cccc2c34)C(=O)N1` (centres unmarked) [Compound 100, 3-[5-(1-benzyl-3-fluoro-azetidin-3-yl)-2-oxo-benzo[cd]indol-1-yl]piperidine-2,6-dione] gave a DC50 [1, 3] of over 10 µM, an Emax [1, 4] of 60 to 95% and a DC50 [2] of over 10 µM. The Emax [2] was over 95%.
Compound `CC(C)NC(=O)c1ccc2c3c(cccc13)N(C1CCC(=O)NC1=O)C2=O` (centres unmarked) [Compound 112, 1-(2,6-dioxopiperidin-3-yl)-N-isopropyl-2-oxo-1,2-dihydrobenzo[cd]indole-5-carboxamide] has a DC50 [1, 3] of over 10 µM, an Emax [1, 4] of 60 to 95% and a DC50 [2] of over 10 µM. The Emax [2] was 60 to 95%.
`CN1CC(Cc2ccc3c4c(cccc24)N(C2CCC(=O)NC2=O)C3=O)C1` (centres unmarked) [Compound 105, 3-[5-[(1-methylazetidin-3-yl)methyl]-2-oxo-benzo[cd]indol-1-yl]piperidine-2,6-dione] gave a DC50 [1, 3] of over 10 µM, an Emax [1, 4] of 60 to 95% and a DC50 [2] of over 10 µM. For the same compound, the Emax [2] was over 95%.
With `CN1CCC(F)(c2ccc3c4c(cccc24)N(C2CCC(=O)NC2=O)C3=O)CC1` (centres unmarked) [Compound 97] the DC50 [1, 3] was over 10 µM, the Emax [1, 4] was 60 to 95% and the DC50 [2] was over 10 µM. It also gave an Emax [2] of 60 to 95%.
Work on `O=C1CCC(N2C(=O)c3ccc(CC4CN(Cc5ccccc5)C4)c4cccc2c34)C(=O)N1` (centres unmarked) [Compound 103, 3-[5-[(1-benzylazetidin-3-yl)methyl]-2-oxo-benzo[cd]indol-1-yl]piperidine-2,6-dione] yielded a DC50 [1, 3] of over 10 µM, an Emax [1, 4] of 60 to 95% and a DC50 [2] of over 10 µM. For the same compound, the Emax [2] was 60 to 95%.
Compound `CC(C)(C)OC(=O)N1CC(Cc2ccc3c4c(cccc24)N(C2CCC(=O)NC2=O)C3=O)C1` (centres unmarked) [Compound 104, Tert-butyl 3-[[1-(2,6-dioxo-3-piperidyl)-2-oxo-benzo[cd]indol-5-yl]methyl]azetidine-1-carboxylate] has a DC50 [1, 3] of over 10 µM, an Emax [1, 4] of 60 to 95% and a DC50 [2] of over 10 µM. It also gave an Emax [2] of 60 to 95%.
Work on `CC(NC(=O)c1ccc2c3c(ccnc13)N(C1CCC(=O)NC1=O)C2=O)c1ccccc1` (centres unmarked) [Compound 122, 27-(2,6-dioxo-3-piperidyl)-20-oxo-N-(1-phenylethyl)-24,27-diazatricyclododeca-6,8(15),9(24),13(16),14(17)-pentaene-14-carboxamide] yielded a DC50 [1, 3] of over 10 µM, an Emax [1, 4] of 60 to 95% and a DC50 [2] of over 10 µM. It also gave an Emax [2] of 60 to 95%.

Source: patent publication US20230339902A1, “TRICYCLIC LIGANDS FOR DEGRADATION OF IKZF2 OR IKZF4” (C4 Therapeutics, Inc., priority 2020, published 2023)
